Data reported in BindingDB's records for doi:10.1016/j.bioorg.2015.02.008 (University of Strasburg, 2015).

Molecular target: T1, 1-deoxy-D-xylulose 5-phosphate reductoisomerase (Escherichia coli (strain K12), UniProt P45568)
T1 sequence (P45568 whole entry): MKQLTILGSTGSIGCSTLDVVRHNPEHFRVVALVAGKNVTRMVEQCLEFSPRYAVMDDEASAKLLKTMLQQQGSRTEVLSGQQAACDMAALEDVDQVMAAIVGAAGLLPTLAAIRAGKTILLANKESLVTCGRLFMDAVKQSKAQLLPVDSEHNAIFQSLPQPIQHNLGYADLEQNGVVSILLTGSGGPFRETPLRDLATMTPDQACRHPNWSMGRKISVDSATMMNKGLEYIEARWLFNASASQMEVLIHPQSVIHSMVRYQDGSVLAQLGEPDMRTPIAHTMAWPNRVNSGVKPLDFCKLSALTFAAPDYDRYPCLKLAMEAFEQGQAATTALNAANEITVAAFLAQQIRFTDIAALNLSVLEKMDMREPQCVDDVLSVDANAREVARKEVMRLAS
Experiment: DXR Inhibition Assay
Description: H-DXR was pre-incubated during 2 min in the presence of the inhibitors at different concentrations and DXP (480 µM). NADPH (160 µM final concentration) was then added to measure the residual activity. The flavonoids are poorly soluble in water. Flavonoids solutions at different concentrations were prepared in DMSO by serial dilutions from 100 mM stock solutions. […] The inhibition mechanism of myricetin was studied by preincubating H-DXR with DXP at varied concentrations (96 480 µM) and fixed concentrations of myricetin (0.5, 1 and 2 µM). The enzymatic reaction was initiated by NADPH (final concentration160 µM). Fosmidomycin was used as a positive reference.

| Structure (SMILES) | IC50 [nM] |
| --- | --- |
| O=c1c(O)c(-c2cc(O)c(O)c(O)c2)oc2cc(O)cc(O)c12 | 1500 |
| O=c1cc(-c2ccccc2)oc2cc(O)c(O)c(O)c12 | 2200 |
| O=c1c(O)c(-c2ccc(O)c(O)c2)oc2cc(O)cc(O)c12 [2-(3,4-dihydroxyphenyl)-3,5,7-trihydroxy-chromone;hydrate] | 1900 |
| O=c1c(O)c(-c2ccc(O)c(O)c2)oc2cc(O)ccc12 [2-(3,4-dihydroxyphenyl)-3,7-dihydroxy-chromen-4-one] | 3500 |
| O=c1cc(-c2ccc(O)c(O)c2)oc2cc(O)cc(O)c12 [2-(3,4-dihydroxyphenyl)-5,7-dihydroxy-4H-chromen-4-one] | 3400 |
